Test results: paper PMC7922224, “Searching for Small Molecules as Antibacterials: Non-Cytotoxic Diarylureas Analogues of Triclocarban” (Antibiotics, 2021)
Values after ≈ are worked out from the molar mass of the structure shown.

Columns and labels:
S. aureus ATCC 29213 = experiment: MIC by broth microdilution (CLSI); type: cell-based, Staphylococcus aureus; conditions: Gram-positive, 37 °C, 24 h, Mueller Hinton Broth; for MIC: Staphylococcus aureus, ATCC29213
Procedure: (§1) The in vitro Minimum Inhibitory Concentrations (MICs, μg/mL) were determined by the broth microdilution method according to the Clinical Laboratory Standards Institute (CLSI) guidelines. MIC values were recorded as the lowest concentration of compounds at which there was no optically detectable microorganism growth and evaluated by comparing the growth in each well visually with that of the growth in the control well for bacteria. All compounds were dissolved in dimethyl sulfoxide (DMSO) and were tested in a final concentration range of from 512 to 2 µg/mL. MICs for the reference antibiotic norfloxacin against quality control strains were used to confirm the validity of the screen. According to the CLSI guidelines, diphenylureas were tested in vitro against a panel of Gram-positive and Gram-negative bacteria belonging to the ATCC collection using the standard microdilution test for the determination of MICs. MICs of the synthesised compounds along with the parent compound TCC and with the standard antibiotic norfloxacin are listed in Table 1. The compounds were also analyzed in terms of molecular mass, logP (Table 1), number of hydrogen-bond donors and number of hydrogen-bond acceptors, and most of them obeyed Lipinski’s rule. […] Based on our results, it seems that the 3,4-dichloro-disubstitution pattern, which is present in TCC, is not crucial for activity. […] Moreover, the activity against Enterococcus faecalis was interesting. E. faecalis is a ubiquitous member of the healthy human gut microbiota and also a common opportunistic pathogen and leading cause of nosocomial infections. It has a high incidence for most infections, and the case numbers have been increasing in recent decades, likely due to its greater ability to persist in healthcare facilities and its higher abundance in the human gut microbiome. Kim et al. (2016) compared the bactericidal effects of plain and antibacterial soap containing 0.3% TCC. The authors found no significative difference between the effects of plain and medicated soap at either temperature, with the only exception of E. faecalis ATCC 19433 at 40 °C.
(§2) MICs (μg/mL) were determined by the broth microdilution method, using 96-well plates, according to CLSI [26]. Stock solutions of the investigated compounds were obtained by setting the concentration at the maximum possible value. Then, the stock solutions were diluted 1:10 with Mueller Hinton Broth (Oxoid, Italy). Afterwards, twofold serial dilutions in the suitable test medium were carried out to obtain a set of concentrations from 512 to 2 µg/mL in the wells. To obtain the stock solution, DMSO (100%) was employed as diluent. The following bacteria strains, available as freeze-dried discs, belonging to the ATCC collection, were used: Gram-positive: S. aureus ATCC 29213, 6538, and 6538P, E. faecalis ATCC 29212; Gram-negative: K. pneuomoniae ATCC 13883, P. aeruginosa ATCC 27853. To conserve the purity of cultures and to enable their reproducibility, cryovials of all microbial strains in the medium were set up and stored at −80 °C. Pre-cultures of each bacterial strain were prepared in Mueller Hinton Broth (MHB) and incubated at 37 °C for 3–5 h. The turbidity of bacterial cell suspension was calibrated to 0.5 McFarland Standard by the spectrophotometric method (OD 625 nm 0.08–0.10), as indicated in the CLSI protocol M7-A9 and, further, the standardized suspension was diluted (1:100) with MHB to reach 1–2 × 10^6 CFU/mL. All wells were seeded with 100 µl of the mentioned final inoculum, and some wells contained only inoculated broth as control growth. […] The MICs were determined by using the assay repeated twice in triplicate. Throughout the study, norfloxacin was used as reference antibiotic. Appropriate controls involved norfloxacin for bacteria as international reference standard. […]

S. aureus ATCC 6538P = experiment: MIC by broth microdilution (CLSI); type: cell-based, Staphylococcus aureus; conditions: Gram-positive, 37 °C, 24 h, Mueller Hinton Broth; for MIC: Staphylococcus aureus, ATCC6538P
Procedure: as §1, §2

S. aureus ATCC 6538 = experiment: MIC by broth microdilution (CLSI); type: cell-based, Staphylococcus aureus; conditions: Gram-positive, 37 °C, 24 h, Mueller Hinton Broth; for MIC: Staphylococcus aureus, ATCC6538
Procedure: as §1, §2

K. pneumoniae ATCC 13883 = experiment: MIC by broth microdilution (CLSI); type: cell-based; conditions: Gram-negative, 37 °C, 24 h, Mueller Hinton Broth; for MIC: Klebsiella pneumoniae, ATCC13883, read-out: MIC K.p. 13883
Procedure: as §1, §2

P. aeruginosa ATCC 27853 = experiment: MIC by broth microdilution (CLSI); type: cell-based; conditions: Gram-negative, 37 °C, 24 h, Mueller Hinton Broth; for MIC: Pseudomonas aeruginosa, ATCC27853
Procedure: as §1, §2

E. faecalis ATCC 29212 = experiment: MIC by broth microdilution (CLSI); type: cell-based, Enterococcus faecalis; conditions: Gram-positive, 37 °C, 24 h, Mueller Hinton Broth; for MIC: Enterococcus faecalis, ATCC29212, read-out: MIC E.f. 29212
Procedure: as §1, §2

E. coli 25922 = experiment: MIC by broth microdilution (CLSI); type: cell-based; conditions: Escherichia coli, Gram-negative, 37 °C, 24 h, Mueller Hinton Broth
Staphylococcus aureus = experiment: MIC by broth microdilution, S. aureus (strain not given); type: cell-based; conditions: strain not specified (best value among the ATCC strains), read-out: MIC against S. aureus
Procedure: as §1, §2

Compound	MIC S.a. 29213 (S. aureus ATCC 29213)	MIC S.a. 6538P (S. aureus ATCC 6538P)	MIC S.a. 6538 (S. aureus ATCC 6538)	MIC K.p. 13883 (K. pneumoniae ATCC 13883)	MIC P. a. 27853 (P. aeruginosa ATCC 27853)	MIC E.f. 29212 (E. faecalis ATCC 29212)	MIC (E. coli 25922)	MIC (S. aureus ATCC 29213)	MIC (S. aureus ATCC 6538P)	MIC (S. aureus ATCC 6538)	MIC (K. pneumoniae ATCC 13883)	MIC (P. aeruginosa ATCC 27853)	MIC (E. faecalis ATCC 29212)	MIC (Staphylococcus aureus)	melting point
1-(3-Chloro-4-fluorophenyl)-3-(2-methylphenyl)urea [1gk]	256 µg/mL	64 µg/mL	128 µg/mL	256 µg/mL	256 µg/mL	64 µg/mL	–	–	–	–	–	–	–	–	–
COc1ccc(NC(=O)Nc2ccc(C)cc2)cc1 [1ad, 1-(4-Methoxyphenyl)-3-(p-tolyl)urea]	–	–	–	–	–	–	> 256 µg/mL	128 µg/mL (≈ 499 µM)	32 µg/mL (≈ 125 µM)	32 µg/mL (≈ 125 µM)	> 256 µg/mL	> 256 µg/mL	128 µg/mL (≈ 499 µM)	32 µg/mL (≈ 125 µM)	–
Cc1ccc(NC(=O)Nc2ccc(Cl)c(Cl)c2)cc1 [1ae, 1-(3,4-Dichlorophenyl)-3-p-tolylurea]	–	–	–	–	–	–	> 256 µg/mL	128 µg/mL (≈ 434 µM)	64 µg/mL (≈ 217 µM)	64 µg/mL (≈ 217 µM)	> 256 µg/mL	> 256 µg/mL	128 µg/mL (≈ 434 µM)	–	225 to 226 °C
Cc1ccc(NC(=O)Nc2ccccc2)cc1 [1af, 1-(4-Methylphenyl)-3-phenylurea]	–	–	–	–	–	–	> 256 µg/mL	128 µg/mL (≈ 566 µM)	128 µg/mL (≈ 566 µM)	64 µg/mL (≈ 283 µM)	> 256 µg/mL	> 256 µg/mL	64 µg/mL (≈ 283 µM)	–	–
Cc1ccc(NC(=O)Nc2ccccc2C)cc1 [1ag, 1-(2-Methylphenyl)-3-(4-methylphenyl)urea]	–	–	–	–	–	–	> 256 µg/mL	256 µg/mL (≈ 1070 µM)	256 µg/mL (≈ 1070 µM)	128 µg/mL (≈ 533 µM)	> 256 µg/mL	> 256 µg/mL	128 µg/mL (≈ 533 µM)	–	–
COc1ccc(NC(=O)Nc2c(C)cccc2C)cc1 [1bd, 1-(4-Methoxyphenyl)-3-(2,6-dimethylphenyl)urea]	–	–	–	–	–	–	> 256 µg/mL	> 256 µg/mL	16 µg/mL (≈ 59.2 µM)	32 µg/mL (≈ 118 µM)	> 256 µg/mL	> 256 µg/mL	128 µg/mL (≈ 473 µM)	16 µg/mL (≈ 59.2 µM)	–
Cc1cccc(C)c1NC(=O)Nc1ccc(Cl)c(Cl)c1 [1be, 1-(2,6-Dimethylphenyl)-3-(3,4-dichlorophenyl)urea]	–	–	–	–	–	–	> 256 µg/mL	128 µg/mL (≈ 414 µM)	128 µg/mL (≈ 414 µM)	32 µg/mL (≈ 103 µM)	> 256 µg/mL	> 256 µg/mL	64 µg/mL (≈ 207 µM)	32 µg/mL (≈ 103 µM)	249 to 250 °C
Cc1cccc(C)c1NC(=O)Nc1ccccc1 [1bf, 1-(2,6-Dimethylphenyl)-3-phenylurea]	–	–	–	–	–	–	> 256 µg/mL	> 256 µg/mL	16 µg/mL (≈ 66.6 µM)	16 µg/mL (≈ 66.6 µM)	> 256 µg/mL	> 256 µg/mL	64 µg/mL (≈ 266 µM)	16 µg/mL (≈ 66.6 µM)	240 to 241 °C
O=C(Nc1ccc(Cl)cc1)Nc1ccc(Cl)cc1 [1cc (DCC), 1-(4-Chlorophenyl)-3-(4-chlorophenyl)urea]	–	–	–	–	–	–	> 256 µg/mL	256 µg/mL (≈ 911 µM)	256 µg/mL (≈ 911 µM)	128 µg/mL (≈ 455 µM)	> 256 µg/mL	> 256 µg/mL	128 µg/mL (≈ 455 µM)	–	–
O=C(Nc1ccccc1)Nc1ccc(Cl)cc1 [1cf (MCC), 1-(4-Chlorophenyl)-3-phenylurea]	–	–	–	–	–	–	> 256 µg/mL	128 µg/mL (≈ 519 µM)	128 µg/mL (≈ 519 µM)	64 µg/mL (≈ 259 µM)	> 256 µg/mL	> 256 µg/mL	64 µg/mL (≈ 259 µM)	–	–
COc1ccc(NC(=O)Nc2ccc(Cl)c(Cl)c2)cc1 [1de, 1-(3,4-Dichlorophenyl)-3-(4-methoxyl)phenylurea]	–	–	–	–	–	–	> 256 µg/mL	128 µg/mL (≈ 411 µM)	64 µg/mL (≈ 206 µM)	64 µg/mL (≈ 206 µM)	> 256 µg/mL	> 256 µg/mL	64 µg/mL (≈ 206 µM)	–	–
COc1ccc(NC(=O)Nc2ccccc2)cc1 [1df, 1-(4-Methoxyphenyl)-3-phenylurea]	–	–	–	–	–	–	> 256 µg/mL	256 µg/mL (≈ 1060 µM)	128 µg/mL (≈ 528 µM)	64 µg/mL (≈ 264 µM)	> 256 µg/mL	256 µg/mL (≈ 1060 µM)	128 µg/mL (≈ 528 µM)	–	–
O=C(Nc1ccccc1)Nc1ccc(Cl)c(Cl)c1 [1ef, 1-(3,4-Dichlorophenyl)-3-phenylurea]	–	–	–	–	–	–	> 256 µg/mL	256 µg/mL (≈ 911 µM)	128 µg/mL (≈ 455 µM)	16 µg/mL (≈ 56.9 µM)	> 256 µg/mL	256 µg/mL (≈ 911 µM)	128 µg/mL (≈ 455 µM)	16 µg/mL (≈ 56.9 µM)	–
Cc1ccccc1NC(=O)Nc1ccc(Cl)c(Cl)c1 [1eg, 1-(3,4-Dichlorophenyl)-3-(2-methylphenyl)urea]	–	–	–	–	–	–	> 256 µg/mL	256 µg/mL (≈ 867 µM)	128 µg/mL (≈ 434 µM)	64 µg/mL (≈ 217 µM)	> 256 µg/mL	> 256 µg/mL	64 µg/mL (≈ 217 µM)	–	–
O=C(Nc1ccccc1)Nc1ccccc1 [1ff (NCC), 1,3-Diphenylurea]	–	–	–	–	–	–	> 256 µg/mL	> 256 µg/mL	64 µg/mL (≈ 302 µM)	128 µg/mL (≈ 603 µM)	> 256 µg/mL	> 256 µg/mL	> 256 µg/mL	–	–
Cc1ccccc1NC(=O)Nc1ccccc1 [1fg, 1-(2-Methylphenyl)-3-phenylurea]	–	–	–	–	–	–	> 256 µg/mL	256 µg/mL (≈ 1130 µM)	16 µg/mL (≈ 70.7 µM)	32 µg/mL (≈ 141 µM)	256 µg/mL (≈ 1130 µM)	> 256 µg/mL	64 µg/mL (≈ 283 µM)	16 µg/mL (≈ 70.7 µM)	241 to 242 °C
O=C(Nc1ccccc1)Nc1ccc(F)c(F)c1 [1fj, 1-(3,4-Difluorophenyl)-3-phenylurea]	–	–	–	–	–	–	–	256 µg/mL (≈ 1030 µM)	64 µg/mL (≈ 258 µM)	128 µg/mL (≈ 516 µM)	256 µg/mL (≈ 1030 µM)	256 µg/mL (≈ 1030 µM)	128 µg/mL (≈ 516 µM)	–	213 to 214 °C
Cc1ccccc1NC(=O)Nc1ccccc1Cl [1gh, 1-(2-Chlorophenyl)-3-(2-methylphenyl)urea]	–	–	–	–	–	–	> 256 µg/mL	256 µg/mL (≈ 982 µM)	32 µg/mL (≈ 123 µM)	32 µg/mL (≈ 123 µM)	> 256 µg/mL	> 256 µg/mL	256 µg/mL (≈ 982 µM)	32 µg/mL (≈ 123 µM)	223 to 224 °C
Cc1ccccc1NC(=O)Nc1ccc(F)c(F)c1 [1gj, 1-(3,4-Difluorophenyl)-3-(2-methylphenyl)urea]	–	–	–	–	–	–	> 256 µg/mL	> 256 µg/mL	128 µg/mL (≈ 488 µM)	64 µg/mL (≈ 244 µM)	> 256 µg/mL	> 256 µg/mL	64 µg/mL (≈ 244 µM)	–	–
Cc1ccccc1NC(=O)Nc1ccccc1F [1gl, 1-(2-Metylphenyl)-3-(2-fluorophenyl)urea]	–	–	–	–	–	–	> 256 µg/mL	128 µg/mL (≈ 524 µM)	32 µg/mL (≈ 131 µM)	64 µg/mL (≈ 262 µM)	> 256 µg/mL	> 256 µg/mL	128 µg/mL (≈ 524 µM)	32 µg/mL (≈ 131 µM)	224 to 225 °C
